# Test results from patent publication US20260184663A1, “INDENE COMPOUNDS, PHARMACEUTICAL COMPOSITIONS THEREOF, AND THEIR THERAPEUTIC APPLICATIONS” (NucMito Pharmaceuticals co. Ltd., priority 2022, published 2026).
# Tests used:
# Type in all cases: cell-based
# [1] = tested on: B16F10 (malignant melanoma); test: Antiproliferative activity (CCK-8 cell viability), B16F10; settings: Mus musculus, 72 h, read-out: Antiproliferative activity in cancerous cells, B16F10 (inhibition of cell growth); for inhibition at 3.3 µM: B16-F10, Compound concentration: 3.3 μM; for inhibition at 10 µM: B16-F10, Compound concentration: 10 μM; for inhibition at 30 µM: B16-F10, Compound concentration: 30 μM
# Summary of the method: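 B16F10 melanoma cells grown in DMEM with 10% FBS were plated in 96-well plates at 2,000-5,000 cells/well. After attachment they were exposed to compound in medium for 72 h at 37° C. CCK-8 solution (10 μL) was then added, and after 4 h at 37° C absorbance was read at 450 nm.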
# [2] = tested on: alpha-smooth muscle actin (α-SMA); test: Inhibition of TGF-β induced expression of alpha-smooth muscle actin (α-SMA) in CFSC cells (western blot); settings: compound at 10 μM, TGF-β (10 ng/mL), 24 hours, band intensity vs TGF-β only
# Summary of the method: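 Values are percent reduction of α-SMA band intensity relative to cells given TGF-β alone, quantified by Western blot densitometry with β-actin probed. Compound was applied at 10 μM alongside 10 ng/mL TGF-β to serum-free CFSC cultures for 24 h at 37 °C.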
# [3] = tested on: SW480 (colon cancer); test: Antiproliferative activity (CCK-8 cell viability), SW480; settings: Homo sapiens, 72 h, read-out: Antiproliferative activity in cancerous cells, SW480 (inhibition of cell growth); for inhibition at 3.3 µM: Compound concentration: 3.3 μM; for inhibition at 10 µM: Compound concentration: 10 μM; for inhibition at 30 µM: Compound concentration: 30 μM
# Summary of the method: (§1)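 Cells grown in DMEM (HepG2, SW480), MEM (HeLa) or F-12K (A549), each with 10% FBS, then exposed to compound at 3.3, 10 or 30 μM for 72 h at 37 °C. CCK-8 absorbance at 450 nm; viability expressed as percent of DMSO-treated cells, graded as growth inhibition bands.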
# [4] = tested on: A431 (epidermoid carcinoma); test: Antiproliferative activity (CCK-8 cell viability), A431; settings: Homo sapiens, 72 h, read-out: Antiproliferative activity in cancerous cells, A431 (inhibition of cell growth); for inhibition at 3.3 µM: A-431, Compound concentration: 3.3 μM; for inhibition at 10 µM: A-431, Compound concentration: 10 μM; for inhibition at 30 µM: A-431, Compound concentration: 30 μM
# Summary of the method: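 A431 epidermoid carcinoma cells grown in DMEM with 10% FBS were plated at 2,000-5,000 cells/well in 96-well plates. After attachment they were exposed to compound at 3.3 μM, 10 μM, or 30 μM for 72 h at 37° C. Viability was then assessed by CCK-8 against DMSO vehicle-treated wells.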
# [5] = tested on: HepG2 (liver cancer); test: Antiproliferative activity (CCK-8 cell viability), HepG2; settings: Homo sapiens, 72 h, read-out: Antiproliferative activity in cancerous cells, HepG2 (inhibition of cell growth); for inhibition at 3.3 µM: Compound concentration: 3.3 μM; for inhibition at 10 µM: Compound concentration: 10 μM; for inhibition at 30 µM: Compound concentration: 30 μM
# Summary of the method: as §1
# [6] = tested on: HeLa (cervical cancer); test: Antiproliferative activity (CCK-8 cell viability), HeLa; settings: Homo sapiens, 72 h, read-out: Antiproliferative activity in cancerous cells, HELA (inhibition of cell growth); for inhibition at 3.3 µM: Compound concentration: 3.3 μM; for inhibition at 10 µM: Compound concentration: 10 μM; for inhibition at 30 µM: Compound concentration: 30 μM
# Summary of the method: as §1
# [7] = tested on: MDA-MB-231 (breast cancer); test: Antiproliferative activity (CCK-8 cell viability), MDA-MB-231; settings: Homo sapiens, 72 h, read-out: Antiproliferative activity in cancerous cells, MDA-MB-231 (inhibition of cell growth); for inhibition at 3.3 µM: Compound concentration: 3.3 μM; for inhibition at 10 µM: Compound concentration: 10 μM; for inhibition at 30 µM: Compound concentration: 30 μM
# Summary of the method: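 MDA-MB-231 breast cancer cells, grown in DMEM with 10% FBS, were plated in 96-well plates at 2,000-5,000 cells/well. Once attached, they were exposed to compound and incubated at 37° C. for 72 h. Viability was then measured with CCK-8 (10 μL per well, 4 h at 37° C.) by absorbance at 450 nm, relative to DMSO vehicle wells.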
# [8] = tested on: A549 (lung adenocarcinoma); test: Antiproliferative activity (CCK-8 cell viability), A549; settings: Homo sapiens, 72 h, read-out: Antiproliferative activity in cancerous cells, A549 (inhibition of cell growth); for inhibition at 3.3 µM: Compound concentration: 3.3 μM; for inhibition at 10 µM: Compound concentration: 10 μM; for inhibition at 30 µM: Compound concentration: 30 μM
# Summary of the method: as §1
structure (smiles),measurement,setting,value
"CC1=C(CC(=O)O)c2c(F)cc(F)cc2/C1=C\c1cccc(C(F)(F)F)c1 [D6, (Z)-2-(4,6-Difluoro-2-methyl-1-(3-(trifluoromethyl)benzylidene)-1H-inden-3-yl)-acetic acid]",inhibition at 3.3 µM,[1],< 30%
same,inhibition at 10 µM,[1],< 30%
same,inhibition at 30 µM,[1],< 30%
same,inhibition at 10 µM,[2],< 30%
same,inhibition at 3.3 µM,[3],< 30%
same,inhibition at 10 µM,[3],< 30%
same,inhibition at 30 µM,[3],30 to 50%
same,inhibition at 3.3 µM,[4],< 30%
same,inhibition at 10 µM,[4],< 30%
same,inhibition at 30 µM,[4],< 30%
same,inhibition at 3.3 µM,[5],< 30%
same,inhibition at 10 µM,[5],< 30%
same,inhibition at 30 µM,[5],30 to 50%
same,inhibition at 3.3 µM,[6],< 30%
same,inhibition at 10 µM,[6],< 30%
same,inhibition at 30 µM,[6],≥ 50%
same,inhibition at 3.3 µM,[7],< 30%
same,inhibition at 10 µM,[7],< 30%
same,inhibition at 30 µM,[7],≥ 50%
same,inhibition at 3.3 µM,[8],< 30%
same,inhibition at 10 µM,[8],< 30%
same,inhibition at 30 µM,[8],≥ 50%
"CC1=C(CC(=O)O)c2c(F)cc(F)cc2/C1=C\c1ccc(C(C)C)cc1 [D8, (Z)-2-(4,6-Difluoro-1-(4-isopropylbenzylidene)-2-methyl-1H-inden-3-yl)acetic acid]",inhibition at 3.3 µM,[1],< 30%
same,inhibition at 10 µM,[1],≥ 50%
same,inhibition at 30 µM,[1],≥ 50%
same,inhibition at 10 µM,[2],50 to 80%
same,inhibition at 3.3 µM,[3],< 30%
same,inhibition at 10 µM,[3],< 30%
same,inhibition at 30 µM,[3],≥ 50%
same,inhibition at 3.3 µM,[4],< 30%
same,inhibition at 10 µM,[4],< 30%
same,inhibition at 30 µM,[4],≥ 50%
same,inhibition at 3.3 µM,[5],< 30%
same,inhibition at 10 µM,[5],< 30%
same,inhibition at 30 µM,[5],≥ 50%
same,inhibition at 3.3 µM,[6],≥ 50%
same,inhibition at 10 µM,[6],≥ 50%
same,inhibition at 30 µM,[6],≥ 50%
same,inhibition at 3.3 µM,[7],30 to 50%
same,inhibition at 10 µM,[7],≥ 50%
same,inhibition at 30 µM,[7],≥ 50%
same,inhibition at 3.3 µM,[8],< 30%
same,inhibition at 10 µM,[8],30 to 50%
same,inhibition at 30 µM,[8],≥ 50%
"COc1ccc(Oc2ccc(/C=C3\C(C)=C(CC(=O)O)c4cc(F)ccc43)cn2)cc1 [E1, (E)-2-(5-Fluoro-1-((6-(4-methoxyphenoxy)pyridin-3-yl)methylene)-2-methyl-1H-inden-3-yl)acetic acid]",inhibition at 3.3 µM,[1],< 30%
same,inhibition at 10 µM,[1],< 30%
same,inhibition at 30 µM,[1],30 to 50%
same,inhibition at 10 µM,[2],< 30%
same,inhibition at 3.3 µM,[3],< 30%
same,inhibition at 10 µM,[3],< 30%
same,inhibition at 30 µM,[3],30 to 50%
same,inhibition at 3.3 µM,[4],< 30%
same,inhibition at 10 µM,[4],< 30%
same,inhibition at 30 µM,[4],< 30%
same,inhibition at 3.3 µM,[5],< 30%
same,inhibition at 10 µM,[5],< 30%
same,inhibition at 30 µM,[5],30 to 50%
same,inhibition at 3.3 µM,[6],< 30%
same,inhibition at 10 µM,[6],< 30%
same,inhibition at 30 µM,[6],30 to 50%
same,inhibition at 3.3 µM,[7],< 30%
same,inhibition at 10 µM,[7],< 30%
same,inhibition at 30 µM,[7],≥ 50%
same,inhibition at 3.3 µM,[8],< 30%
same,inhibition at 10 µM,[8],30 to 50%
same,inhibition at 30 µM,[8],30 to 50%
